This data set in a line: Cmax in po dosed human plasma. Type of data set: ADME, organism-based. Details: route po.

SMILES strings stand for the structures.

Take `CC(C)=CCC[C@](C)(O[C@H]1O[C@H](CO)[C@@H](O)[C@H](O)[C@H]1O)[C@H]1CC[C@]2(C)[C@@H]1[C@H](O)C[C@@H]1[C@@]3(C)CC[C@H](O)C(C)(C)[C@@H]3CC[C@]12C`: the Cmax (usually the highest concentration seen after dosing) stood at 8.35 ng/mL.

`CC(C)=CCC[C@](C)(O[C@@H]1O[C@H](CO[C@@H]2O[C@H](CO)[C@@H](O)[C@H](O)[C@H]2O)[C@@H](O)[C@H](O)[C@H]1O)[C@H]1CC[C@]2(C)[C@@H]1[C@H](O)C[C@@H]1[C@@]3(C)CC[C@H](O[C@@H]4O[C@H](CO)[C@@H](O)[C@H](O)[C@H]4O[C@@H]4O[C@H](CO)[C@@H](O)[C@H](O)[C@H]4O)C(C)(C)[C@@H]3CC[C@]12C` [GINSENOSIDE RB1] showed a Cmax of 3.94 ng/mL.

Values taken from ChEMBL document CHEMBL5360569, “Inhibition of the pyroptosis-associated inflammasome pathway: The important potential mechanism of ginsenosides in ameliorating diabetes and its complications” (Eur J Med Chem, 2023).
